Laboratory results from patent publication US20220000911A1, “COMBINATION OF GOLD COMPLEXES WITH OLAPARIB OR OTHER PARP1/2 INHIBITORS FOR USE IN THE TREATMENT OF CANCER RESISTANT TO SAID PARP1/2 INHIBITORS” (Varsity Pharmaceuticals Limited, priority 2020, published 2022).

Tests used:
Assay type in all cases: cell-based
[1] = system: wildtype A2780 ovarian cancer cells; assay: CellTiter Glo proliferation inhibition, wild-type A2780 cells; conditions: for Maximum inhibition observed in wild-type A2780 cells: concentration range 0.06 nM to 30,000 nM
Description: The A2780 cell line is an ovarian cancer cell line that was established from an ovarian endometroid adenocarcinoma tumour. […] It is commonly used as a model to observe the effects of, and test the potency of various chemicals, methods of delivery and treatments for ovarian cancer. […] The cells were diluted with culture medium and 40 μL of cell suspension (1000 cells/well) was added into each well of a 384-well cell culture plate. The plate was covered with a lid and left at room temperature without shaking for 30 minutes. The plate was then transferred to an incubator at 37° C. and 5% CO2 and left overnight. Test compounds were dissolved at a concentration of 30 mM in DMSO to create a stock solution. 45 μL of the stock solution was transferred to a 384 pp-plate. […] The plate was then spun at room temperature at 1,000 RPM for 1 minute. 40 nL of the diluted compound was then transferred from the compound source plate into the cell plate. The cell plate was then covered with a lid and placed in an incubator at 37° C. and 5% CO2 and left for 120 hours. 72 hours after treatment with the compound detection was conducted as discussed below. CellTiter Glo® reagents were thawed and equilibrated to room temperature. The cell plate was then removed from the incubator and equilibrated at room temperature for 15 minutes. 30 μL of the CellTiter Glo® reagents were then added into each well (at 1:1 to culture medium). The contents was mixed for 2 minutes on an orbital shaker to induce cell lysis and then the plates were allowed to incubate at room temperature for 30 minutes. Luminescence was then measured on an Envision reader (Perkin Elmer). The inhibition activity was calculated using the following formula: […]

[2] = system: olaparib resistant A2780 ovarian cancer cells; assay: CellTiter Glo proliferation inhibition, olaparib resistant A2780 cells, single agents; conditions: for Maximum inhibition observed in olaparib resistant A2780 cells: concentration range 0.06 nM to 30,000 nM
Description: A2780 ovarian cancer cells (wild-type “WT”) were cultured in RPMI 1640 Medium with 10% Fetal Bovine Serum (FBS).
To obtain cells resistant to olaparib, the cells were cultured in cell culture medium (RPMI 1640 Medium with 10% FBS) supplemented with 20 μM olaparib for one month in order to generate A2780 cells resistant to olaparib (“R”). After a month the cells were continuously cultured in the cell culture medium (RPMI 1640 Medium with 10% FBS) supplemented with 10 μM olaparib prior to use and for up to two months to maintain the resistance.
(§1) The cells were harvested from a flask into cell culture medium (RPMI 1640 Medium with 10% FBS) and then counted. The cells were diluted with culture medium and 40 μL of cell suspension (1000 cells/well) was added into each well of a 384-well cell culture plate. The plate was covered with a lid and left at room temperature without shaking for 30 minutes. The plate was then transferred to an incubator at 37° C. and 5% CO2 and left overnight.
Test compounds were dissolved at a concentration of 30 mM in DMSO to create a stock solution. 45 μL of the stock solution was transferred to a 384 pp-plate. […] The plate was then spun at room temperature at 1,000 RPM for 1 minute. 40 nL of the diluted compound was then transferred from the compound source plate into the cell plate. The cell plate was then covered with a lid and placed in an incubator at 37° C. and 5% CO2 and left for 120 hours. 72 hours after treatment with the compound detection was conducted as discussed below.
(§2) CellTiter Glo® reagents were thawed and equilibrated to room temperature. The cell plate was then removed from the incubator and equilibrated at room temperature for 15 minutes. 30 μL of the CellTiter Glo® reagents were then added into each well (at 1:1 to culture medium). The contents was mixed for 2 minutes on an orbital shaker to induce cell lysis and then the plates were allowed to incubate at room temperature for 30 minutes. Luminescence was then measured on an Envision reader (Perkin Elmer).
The inhibition activity was calculated using the following formula:
(§3) Inhibition (%)=100×(Lumvehicle−Lumsample)/(Lumvehicle−Lumblank),
where Lumvehicle is the luminescence of cells treated with 0.1% DMSO and Lumblank is cells in the culture medium.
The IC50 was calculated by fitting the curve using Xlfit (v5.3.1.3), equation 201: […]

[3] = system: olaparib resistant HCC1937 triple negative breast cancer cells; assay: Proliferation inhibition of olaparib resistant HCC1937 cells, single agents
Description: as §1
Test compounds were dissolved at a concentration of 30 mM in DMSO to create a stock solution. 45 μL of the stock solution was transferred to a 384 pp-plate. A 3-fold, 10-point dilution was performed by transferring 15 μL of the compound solution into 30 μL DMSO by using TECAN (EVO200) liquid handler. The plate was then spun at room temperature at 1,000 RPM for 1 minute. 40 nL of the diluted compound was then transferred from the compound source plate into the cell plate. The cell plate was then covered with a lid and placed in an incubator at 37° C. and 5% CO2 and left for 120 hours. 72 hours after treatment with the compound detection was conducted as discussed below.
as §2, §3
The methods were as described in examples 1 and 2, except the HCC1937 cell line was used.
The HCC1937 cell line was established from a primary breast carcinoma from a patient with a germ-line BRCA1 mutation. It is an example of a triple-negative breast cancer (TNBC) cell line. Breast cancer patients routinely have the expression of estrogen receptor (ER), progesterone receptor (PR), and amplification of HER-2/Neu evaluated. […] The latter group is referred to as triple-negative breast cancer based on the lack of these three molecular markers. TNBC represents approximately 10-15% of all breast cancers and patients with TNBC have a poor outcome compared to the other subtypes of breast cancer.

[4] = wildtype A2780, test conc. 1,111.11 nM
[5] = wildtype A2780, test conc. 3,333.33 nM
[6] = olaparib resistant A2780, test conc. 1,111.11 nM
[7] = olaparib resistant A2780, test conc. 3,333.33 nM

SMILES: CC(=O)OC[C@H]1O[C@@H]([S-])[C@H](OC(C)=O)[C@@H](OC(C)=O)[C@@H]1OC(C)=O.CCP(CC)CC.[Au+] [Auranofin, auranofin]
- Maximum inhibition observed in wild-type A2780 cells [1]: 100%
- IC50 ([1]; wild-type A2780 cells): 101 nM
- Mean Inhibition (n = 3) ([1]; wildtype A2780, test conc. 1.52 nM): −1.87%
- Mean Inhibition (n = 3) ([1]; wildtype A2780, test conc. 4.57 nM): −0.74%
- Mean Inhibition (n = 3) ([1]; wildtype A2780, test conc. 13.72 nM): 2.52%
- Mean Inhibition (n = 3) ([1]; wildtype A2780, test conc. 41.15 nM): 21.08%
- Mean Inhibition (n = 3) ([1]; wildtype A2780, test conc. 123.46 nM): 56.32%
- Mean Inhibition (n = 3) ([1]; wildtype A2780, test conc. 370.37 nM): 86.25%
- Mean Inhibition (n = 3) [1, 4]: 98.39%
- Mean Inhibition (n = 3) [1, 5]: 100.15%
- Mean Inhibition (n = 3) ([1]; wildtype A2780, test conc. 10,000 nM): 100.17%
- Mean Inhibition (n = 3) ([1]; wildtype A2780, test conc. 30,000 nM): 100.20%
- Maximum inhibition observed in olaparib resistant A2780 cells [2]: 100%
- Mean Inhibition (n = 3) ([2]; olaparib resistant A2780, test conc. 1.52 nM): 4.64%
- Mean Inhibition (n = 3) ([2]; olaparib resistant A2780, test conc. 4.57 nM): 3.42%
- Mean Inhibition (n = 3) ([2]; olaparib resistant A2780, test conc. 13.72 nM): 12.34%
- Mean Inhibition (n = 3) ([2]; olaparib resistant A2780, test conc. 41.15 nM): 41.07%
- Mean Inhibition (n = 3) ([2]; olaparib resistant A2780, test conc. 123.46 nM): 78.31%
- Mean Inhibition (n = 3) ([2]; olaparib resistant A2780, test conc. 370.37 nM): 96.38%
- Mean Inhibition (n = 3) [2, 6]: 96.82%
- Mean Inhibition (n = 3) [2, 7]: 100.13%
- Mean Inhibition (n = 3) ([2]; olaparib resistant A2780, test conc. 10,000 nM): 100.19%
- Mean Inhibition (n = 3) ([2]; olaparib resistant A2780, test conc. 30,000 nM): 100.17%
- IC50 ([2]; olaparib resistant A2780 cells): 55 nM
- Mean Inhibition (n = 3) ([3]; test conc. 1.52 nM): −8.11%
- Mean Inhibition (n = 3) ([3]; test conc. 4.57 nM): 0.54%
- Mean Inhibition (n = 3) ([3]; test conc. 13.72 nM): −0.91%
- Mean Inhibition (n = 3) ([3]; test conc. 41.15 nM): 0.49%
- Mean Inhibition (n = 3) ([3]; test conc. 123.46 nM): 0.54%
- Mean Inhibition (n = 3) ([3]; test conc. 370.37 nM): 13.11%
- Mean Inhibition (n = 3) ([3]; test conc. 1,111.11 nM): 59.64%
- Mean Inhibition (n = 3) ([3]; test conc. 3,333.33 nM): 98.95%
- Mean Inhibition (n = 3) ([3]; test conc. 10,000 nM): 100.03%
- Mean Inhibition (n = 3) ([3]; test conc. 30,000 nM): 99.97%

SMILES: O=C(c1cc(Cc2n[nH]c(=O)c3ccccc23)ccc1F)N1CCN(C(=O)C2CC2)CC1 [Olaparib, olaparib]
- IC50 ([1]; Homo sapiens, A2780): 3890 nM
- inhibition at 0.00152 µM ([1]; Homo sapiens, wildtype A2780, test conc. 1.52 nM, read-out: Mean Inhibition (n = 3)): 0.36%
- inhibition at 0.00457 µM ([1]; Homo sapiens, wildtype A2780, test conc. 4.57 nM, read-out: Mean Inhibition (n = 3)): 1.77%
- inhibition at 0.01372 µM ([1]; Homo sapiens, wildtype A2780, test conc. 13.72 nM, read-out: Mean Inhibition (n = 3)): 2.98%
- inhibition at 0.04115 µM ([1]; Homo sapiens, wildtype A2780, test conc. 41.15 nM, read-out: Mean Inhibition (n = 3)): 5%
- inhibition at 0.12346 µM ([1]; Homo sapiens, wildtype A2780, test conc. 123.46 nM, read-out: Mean Inhibition (n = 3)): 12.5%
- inhibition at 0.37037 µM ([1]; Homo sapiens, wildtype A2780, test conc. 370.37 nM, read-out: Mean Inhibition (n = 3)): 11.9%
- inhibition at 10 µM ([1]; Homo sapiens, wildtype A2780, test conc. 10,000 nM, read-out: Mean Inhibition (n = 3)): 62.7%
- inhibition at 30 µM ([1]; Homo sapiens, wildtype A2780, test conc. 30,000 nM, read-out: Mean Inhibition (n = 3)): 70.8%
- Maximum inhibition observed in wild-type A2780 cells [1]: 72%
- Mean Inhibition (n = 3) [1, 4]: 24.63%
- Mean Inhibition (n = 3) [1, 5]: 39.88%
- IC50 ([2]; Homo sapiens, A2780): > 30000 nM
- inhibition at 0.00152 µM ([2]; Homo sapiens, olaparib resistant A2780, test conc. 1.52 nM, read-out: Mean Inhibition (n = 3)): 1.01%
- inhibition at 0.00457 µM ([2]; Homo sapiens, olaparib resistant A2780, test conc. 4.57 nM, read-out: Mean Inhibition (n = 3)): 2.74%
- inhibition at 0.01372 µM ([2]; Homo sapiens, olaparib resistant A2780, test conc. 13.72 nM, read-out: Mean Inhibition (n = 3)): 1.78%
- inhibition at 0.04115 µM ([2]; Homo sapiens, olaparib resistant A2780, test conc. 41.15 nM, read-out: Mean Inhibition (n = 3)): 1.43%
- inhibition at 0.12346 µM ([2]; Homo sapiens, olaparib resistant A2780, test conc. 123.46 nM, read-out: Mean Inhibition (n = 3)): 5.53%
- inhibition at 0.37037 µM ([2]; Homo sapiens, olaparib resistant A2780, test conc. 370.37 nM, read-out: Mean Inhibition (n = 3)): 5.11%
- inhibition at 10 µM ([2]; Homo sapiens, olaparib resistant A2780, test conc. 10,000 nM, read-out: Mean Inhibition (n = 3)): 9.9%
- inhibition at 30 µM ([2]; Homo sapiens, olaparib resistant A2780, test conc. 30,000 nM, read-out: Mean Inhibition (n = 3)): 16.2%
- Maximum inhibition observed in olaparib resistant A2780 cells [2]: 23%
- Mean Inhibition (n = 3) [2, 6]: 2.24%
- Mean Inhibition (n = 3) [2, 7]: 6.97%
- inhibition at 0.00152 µM ([3]; test conc. 1.52 nM, read-out: Mean Inhibition (n = 3)): -6.55%
- inhibition at 0.00457 µM ([3]; test conc. 4.57 nM, read-out: Mean Inhibition (n = 3)): -1.82%
- inhibition at 0.01372 µM ([3]; test conc. 13.72 nM, read-out: Mean Inhibition (n = 3)): -3.47%
- inhibition at 0.04115 µM ([3]; test conc. 41.15 nM, read-out: Mean Inhibition (n = 3)): -0.93%
- inhibition at 0.12346 µM ([3]; test conc. 123.46 nM, read-out: Mean Inhibition (n = 3)): 1.32%
- inhibition at 0.37037 µM ([3]; test conc. 370.37 nM, read-out: Mean Inhibition (n = 3)): 4.41%
- Mean Inhibition (n = 3) ([3]; test conc. 1,111.11 nM): 3.09%
- Mean Inhibition (n = 3) ([3]; test conc. 3,333.33 nM): 4.90%
- inhibition at 10 µM ([3]; test conc. 10,000 nM, read-out: Mean Inhibition (n = 3)): 17%
- inhibition at 30 µM ([3]; test conc. 30,000 nM, read-out: Mean Inhibition (n = 3)): 11.8%
